Earlier results, collected in patent US7098242B2, “Dihydroartemisinin and dihydroartemisitene dimers as anti-cancer and anti-infective agents” (The University of Mississippi, priority 2002, dated 2006).

What was measured:
[1] = tested on: chloroquine-sensitive and chloroquine-resistant strains of Plasmodium falciparum
[2] = tested on: malaria

Row | Structure (SMILES) | anti-malarial activity [1] | activity relative to other artemisinin derivatives [2]
1 | C[C@@H]1CC[C@H]2[C@@H](C)C(=O)O[C@@H]3O[C@@]4(C)CC[C@@H]1[C@]32OO4 [artemisinin] | anti-malarial activity against both chloroquine-sensitive and chloroquine-resistant strains | –
2 | C[C@H]1[C@H](OC(=O)CCC(=O)[O-])O[C@@H]2O[C@@]3(C)CC[C@H]4[C@H](C)CC[C@@H]1[C@@]24OO3.[Na+] [sodium artesunate] | – | more activity
